Assay results reported in article PMC2996881 (Biochemistry, 2010).

What was measured:
CgTHI6 [1] = biological target: T1, CgTHI6 (Nakaseomyces glabratus, UniProt Q6FV03); assay: HPLC of ThMP formation at […] nm; format: biochemical; conditions: TPS activity; 1 mM HMP-PP, 1.2 mM Thz, 2 mM ATP, 2 mM MgSO4, room temperature, 2 h
T1 sequence (Q6FV03 1-540): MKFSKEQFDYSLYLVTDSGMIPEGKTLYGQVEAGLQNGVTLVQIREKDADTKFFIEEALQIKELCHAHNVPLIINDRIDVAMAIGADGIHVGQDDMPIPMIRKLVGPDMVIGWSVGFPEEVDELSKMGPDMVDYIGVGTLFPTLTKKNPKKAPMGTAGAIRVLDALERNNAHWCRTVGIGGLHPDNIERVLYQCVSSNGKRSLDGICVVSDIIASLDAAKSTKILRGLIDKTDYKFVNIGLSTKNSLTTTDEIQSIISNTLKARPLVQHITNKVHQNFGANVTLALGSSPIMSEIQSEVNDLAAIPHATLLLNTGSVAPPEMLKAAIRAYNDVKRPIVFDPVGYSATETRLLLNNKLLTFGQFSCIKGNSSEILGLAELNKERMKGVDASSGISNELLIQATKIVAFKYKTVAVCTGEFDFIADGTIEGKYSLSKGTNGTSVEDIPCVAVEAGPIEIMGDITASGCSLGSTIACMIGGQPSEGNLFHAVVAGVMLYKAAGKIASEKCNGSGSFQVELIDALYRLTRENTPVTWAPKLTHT

CgTHI6 [2] = biological target: T1, CgTHI6; assay: X-ray crystal structure; format: binding; conditions: ThiM (C-terminal) domain ATP site; Mg2+
CgTHI6 [3] = biological target: T1, CgTHI6; assay: HPLC of Thz-P formation at […] nm; format: biochemical; conditions: ThiM activity; 2 mM ATP, 1.2 mM Thz, 2 mM MgSO4, room temperature, 2 h

SMILES: Cc1ncc(COP(=O)(O)OP(=O)(O)O)c(N)n1 [HMP-PP, 4-amino-5-hydroxymethyl-2-methylpyrimidine pyrophosphate]
- HPLC of ThMP formation at 261 nm (CgTHI6 [1]): Incorporation of HMP-PP in the same reaction resulted in the production of ThMP

SMILES: Nc1ncnc2c1ncn2[C@@H]1O[C@H](COP(=O)(O)OP(=O)(O)CP(=O)(O)O)[C@@H](O)[C@H]1O [AMP-PCP]
- X-ray crystal structure (soaked, 3.3 A with Thz; 2.6 A with ThMP) (CgTHI6 [2]): The ATP binding site is inferred from the complex containing the non-hydrolizable ATP analogue, AMP-PCP

SMILES: Nc1ncnc2c1ncn2[C@@H]1O[C@H](COP(=O)(O)OP(=O)(O)OP(=O)(O)O)[C@@H](O)[C@H]1O [ATP]
- HPLC of Thz-P formation at 261 nm (CgTHI6 [3]): the purified protein was incubated with Thz and ATP, formation of Thz-P was noted
